Earlier results, collected in patent US20110105449A1, “DRY POWDER FORMULATIONS COMPRISING ASCORBIC ACID DERIVATES” (ASTRAZENECA R&D, priority 2007, published 2011).
In brackets after ≈: the same amount, converted by molar mass.

Conditions: at 25° C.

## CCCC1O[C@@H]2C[C@H]3[C@@H]4CCC5=CC(=O)C=C[C@]5(C)[C@H]4[C@@H](O)C[C@]3(C)[C@]2(C(=O)CO)O1 (stereo partly shown) [Budesonide, budesonide]
  water solubility: 16 µg/mL (≈ 37.2 µM)
